Test results taken from patent publication US11116735B2, “Use of substituted benzylideneguanidine derivatives as synergists for polymyxin antibiotics” (GUANGZHOU INSIGHTER BIOTECHNOLOGY CO., LTD., priority 2015, dated 2021).

Columns and labels:
E. coli 4D-6 = assay: MIC by doubling dilution, colistin sulfate-resistant E. coli 4D-6; conditions: for In vitro minimum inhibitory concentration (MIC) of the substance alone: E. coli 4D-6, colistin sulfate-resistant, derivatives as hydrochlorides; for In vitro MIC of colistin sulfate in the presence of the substituted benzylideneguanidine derivative: E. coli 4D-6, resistant, culture comprised 20.0 ppm of the derivative (hydrochloride)
E. coli 2G-7 = assay: MIC by doubling dilution, colistin sulfate-resistant E. coli 2G-7; conditions: for In vitro minimum inhibitory concentration (MIC) of the substance alone: E. coli 2G-7, colistin sulfate-resistant, derivatives as hydrochlorides; for In vitro MIC of colistin sulfate in the presence of the substituted benzylideneguanidine derivative: E. coli 2G-7, resistant, culture comprised 20.0 ppm of the derivative (hydrochloride)
E. coli 3B-24 = assay: MIC by doubling dilution, colistin sulfate-susceptible E. coli 3B-24; assay type: cell-based, Escherichia coli; conditions: for In vitro minimum inhibitory concentration (MIC) of the substance alone: E. coli 3B-24, colistin sulfate-susceptible, derivatives as hydrochlorides; for In vitro MIC of colistin sulfate in the presence of the substituted benzylideneguanidine derivative: E. coli 3B-24, culture comprised 20.0 ppm of the derivative (hydrochloride), colistin sulfate serially diluted
E. coli 5F-1 = assay: MIC by doubling dilution, colistin sulfate-resistant E. coli 5F-1; conditions: for In vitro minimum inhibitory concentration (MIC) of the substance alone: E. coli 5F-1, colistin sulfate-resistant, derivatives as hydrochlorides; for In vitro MIC of colistin sulfate in the presence of the substituted benzylideneguanidine derivative: E. coli 5F-1, resistant, culture comprised 20.0 ppm of the derivative (hydrochloride)
E. coli 3H-4 = assay: MIC by doubling dilution, colistin sulfate-resistant E. coli 3H-4; conditions: for In vitro minimum inhibitory concentration (MIC) of the substance alone: E. coli 3H-4, colistin sulfate-resistant, derivatives as hydrochlorides; for In vitro MIC of colistin sulfate in the presence of the substituted benzylideneguanidine derivative: E. coli 3H-4, resistant, culture comprised 20.0 ppm of the derivative (hydrochloride)
E. coli 3Y-9 = assay: MIC by doubling dilution, colistin sulfate-susceptible E. coli 3Y-9; assay type: cell-based, Escherichia coli; conditions: for In vitro minimum inhibitory concentration (MIC) of the substance alone: E. coli 3Y-9, colistin sulfate-susceptible, derivatives as hydrochlorides; for In vitro MIC of colistin sulfate in the presence of the substituted benzylideneguanidine derivative: E. coli 3Y-9, culture comprised 20.0 ppm of the derivative (hydrochloride), colistin sulfate serially diluted
E. coli 2S-19 = assay: MIC by doubling dilution, colistin sulfate-susceptible E. coli 2S-19; assay type: cell-based, Escherichia coli; conditions: for In vitro minimum inhibitory concentration (MIC) of the substance alone: E. coli 2S-19, colistin sulfate-susceptible, derivatives as hydrochlorides; for In vitro MIC of colistin sulfate in the presence of the substituted benzylideneguanidine derivative: E. coli 2S-19, culture comprised 20.0 ppm of the derivative (hydrochloride), colistin sulfate serially diluted
E. coli 5W-7 = assay: MIC by doubling dilution, colistin sulfate-susceptible E. coli 5W-7; assay type: cell-based, Escherichia coli; conditions: for In vitro minimum inhibitory concentration (MIC) of the substance alone: E. coli 5W-7, colistin sulfate-susceptible, derivatives as hydrochlorides; for In vitro MIC of colistin sulfate in the presence of the substituted benzylideneguanidine derivative: E. coli 5W-7, culture comprised 20.0 ppm of the derivative (hydrochloride), colistin sulfate serially diluted

In vitro minimum inhibitory concentration (MIC) of the substance alone (E. coli 4D-6)	In vitro MIC of colistin sulfate in the presence of the substituted benzylideneguanidine derivative (E. coli 4D-6)	In vitro minimum inhibitory concentration (MIC) of the substance alone (E. coli 2G-7)	In vitro MIC of colistin sulfate in the presence of the substituted benzylideneguanidine derivative (E. coli 2G-7)	In vitro minimum inhibitory concentration (MIC) of the substance alone (E. coli 3B-24)	In vitro MIC of colistin sulfate in the presence of the substituted benzylideneguanidine derivative (E. coli 3B-24)	In vitro minimum inhibitory concentration (MIC) of the substance alone (E. coli 5F-1)	In vitro MIC of colistin sulfate in the presence of the substituted benzylideneguanidine derivative (E. coli 5F-1)	In vitro minimum inhibitory concentration (MIC) of the substance alone (E. coli 3H-4)	In vitro MIC of colistin sulfate in the presence of the substituted benzylideneguanidine derivative (E. coli 3H-4)	In vitro minimum inhibitory concentration (MIC) of the substance alone (E. coli 3Y-9)	In vitro MIC of colistin sulfate in the presence of the substituted benzylideneguanidine derivative (E. coli 3Y-9)	In vitro minimum inhibitory concentration (MIC) of the substance alone (E. coli 2S-19)	In vitro MIC of colistin sulfate in the presence of the substituted benzylideneguanidine derivative (E. coli 2S-19)	In vitro minimum inhibitory concentration (MIC) of the substance alone (E. coli 5W-7)	In vitro MIC of colistin sulfate in the presence of the substituted benzylideneguanidine derivative (E. coli 5W-7)	SMILES
>800 ppm	32 ppm	>800 ppm	16 ppm	>800 ppm	1.00 ppm	>800 ppm	32 ppm	>800 ppm	8 ppm	>800 ppm	1.00 ppm	>800 ppm	1.00 ppm	>800 ppm	0.50 ppm	NC(=NN=Cc1ccc(C(F)(F)F)cc1)NN=Cc1ccc(C(F)(F)F)cc1 [Compound 14]
>800 ppm	8.0 ppm	>800 ppm	2.0 ppm	>800 ppm	2.00 ppm	>800 ppm	4.0 ppm	>800 ppm	2.0 ppm	>800 ppm	2.00 ppm	>800 ppm	2.00 ppm	>800 ppm	1.00 ppm	CCOc1ccc(C=NN=C(N)NN=Cc2ccc(OCC)cc2)cc1 [Compound 2]
>800 ppm	16 ppm	>800 ppm	4 ppm	>800 ppm	1.00 ppm	>800 ppm	8 ppm	>800 ppm	4 ppm	>800 ppm	1.00 ppm	>800 ppm	1.00 ppm	>800 ppm	0.50 ppm	CCSc1ccc(C=NNC(=N)NN=Cc2ccc(SCC)cc2)cc1 [Compound 9]
>800 ppm	16 ppm	>800 ppm	4 ppm	>800 ppm	1.00 ppm	>800 ppm	8 ppm	>800 ppm	4 ppm	>800 ppm	1.00 ppm	>800 ppm	1.00 ppm	>800 ppm	0.50 ppm	Cc1ccc(C=NN=C(N)NN=Cc2ccc(C)cc2)cc1 [Compound 10]
>800 ppm	64 ppm	>800 ppm	16 ppm	>800 ppm	2.00 ppm	>800 ppm	16 ppm	>800 ppm	16 ppm	>800 ppm	1.00 ppm	>800 ppm	1.00 ppm	>800 ppm	0.50 ppm	CC(C)c1ccc(C=NNC(=N)NN=Cc2ccc(C(C)C)cc2)cc1 [Compound 11]
>800 ppm	16 ppm	>800 ppm	4 ppm	>800 ppm	1.00 ppm	>800 ppm	8 ppm	>800 ppm	4 ppm	>800 ppm	1.00 ppm	>800 ppm	1.00 ppm	>800 ppm	0.50 ppm	N=C(NN=Cc1ccc([N+](=O)[O-])cc1)NN=Cc1ccc([N+](=O)[O-])cc1 [Compound 15]
